According to the supplement of paper PMC9005190:

Tests used:
FP [1] = target: FP (UniProt P43088); test: Emax (maximal agonist-induced change in ebBRET relative to vehicle) (% of vehicle response (amplitude of change)); higher = larger response (for Gs, larger decrease in membrane ebBRET, i.e. stronger Gs activation)
FP [2] = target: FP (UniProt P43088); test: pEC50 of agonist-induced pathway activation (ebBRET)
CRFR2 [3] = target: T1, CRFR2 (UniProt Q13324); test: Emax (maximal agonist-induced change in ebBRET relative to vehicle) (% of vehicle response (amplitude of change)); higher = larger response (for Gs, larger decrease in membrane ebBRET, i.e. stronger Gs activation)
T1 sequence (whole entry): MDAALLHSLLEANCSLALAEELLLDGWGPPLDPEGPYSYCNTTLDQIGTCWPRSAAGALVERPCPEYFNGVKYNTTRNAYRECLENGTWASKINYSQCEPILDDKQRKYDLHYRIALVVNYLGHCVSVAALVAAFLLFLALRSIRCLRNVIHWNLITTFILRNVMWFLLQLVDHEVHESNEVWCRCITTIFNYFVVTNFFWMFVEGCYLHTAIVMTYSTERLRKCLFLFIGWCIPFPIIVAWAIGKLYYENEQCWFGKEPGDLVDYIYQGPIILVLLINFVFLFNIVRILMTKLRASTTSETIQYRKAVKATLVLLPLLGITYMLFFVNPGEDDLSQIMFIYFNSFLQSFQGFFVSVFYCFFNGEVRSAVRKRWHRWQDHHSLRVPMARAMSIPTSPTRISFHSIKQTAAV

CRFR2 [4] = target: T1, CRFR2; test: pEC50 of agonist-induced pathway activation (ebBRET)
GPR65 [5] = target: GPR65 (UniProt Q8IYL9); test: Emax (maximal agonist-induced change in ebBRET relative to vehicle) (% of vehicle response (amplitude of change)); higher = larger response (for Gs, larger decrease in membrane ebBRET, i.e. stronger Gs activation)
Sequence of GPR65 (Q8IYL9 whole entry): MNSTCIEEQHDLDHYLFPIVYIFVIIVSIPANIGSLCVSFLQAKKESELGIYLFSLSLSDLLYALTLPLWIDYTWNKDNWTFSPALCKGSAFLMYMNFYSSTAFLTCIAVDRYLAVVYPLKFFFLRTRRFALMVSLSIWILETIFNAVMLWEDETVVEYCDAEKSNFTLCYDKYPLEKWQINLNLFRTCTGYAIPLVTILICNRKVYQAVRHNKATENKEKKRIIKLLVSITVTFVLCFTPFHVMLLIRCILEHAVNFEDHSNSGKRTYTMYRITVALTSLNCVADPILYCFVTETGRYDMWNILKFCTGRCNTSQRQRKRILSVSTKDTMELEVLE

GPR68 [6] = target: GPR68 (UniProt Q15743); test: as above
Sequence of GPR68 (Q15743 whole entry): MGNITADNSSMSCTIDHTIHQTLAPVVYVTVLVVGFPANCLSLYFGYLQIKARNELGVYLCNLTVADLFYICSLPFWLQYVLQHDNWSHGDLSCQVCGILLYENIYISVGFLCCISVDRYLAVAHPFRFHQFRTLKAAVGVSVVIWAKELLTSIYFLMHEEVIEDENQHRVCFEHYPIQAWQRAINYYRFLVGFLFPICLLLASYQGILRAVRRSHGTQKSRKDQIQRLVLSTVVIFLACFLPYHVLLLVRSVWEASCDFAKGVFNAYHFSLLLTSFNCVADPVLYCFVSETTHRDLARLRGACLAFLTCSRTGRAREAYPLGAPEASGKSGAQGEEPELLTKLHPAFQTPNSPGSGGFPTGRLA

GPR4 [7] = target: GPR4 (UniProt P46093); test: as above
Sequence of GPR4 (P46093 whole entry, looked up): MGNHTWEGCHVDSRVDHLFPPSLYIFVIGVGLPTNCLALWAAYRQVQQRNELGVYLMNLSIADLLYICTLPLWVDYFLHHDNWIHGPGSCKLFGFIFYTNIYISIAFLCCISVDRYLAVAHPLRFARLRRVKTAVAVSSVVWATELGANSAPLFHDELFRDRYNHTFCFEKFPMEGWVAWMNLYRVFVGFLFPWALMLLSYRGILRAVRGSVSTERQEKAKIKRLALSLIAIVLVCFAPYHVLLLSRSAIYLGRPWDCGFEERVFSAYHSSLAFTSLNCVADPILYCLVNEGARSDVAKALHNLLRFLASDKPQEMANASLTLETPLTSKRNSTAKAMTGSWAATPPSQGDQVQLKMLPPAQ

GPR65 [8] = target: GPR65 (UniProt Q8IYL9); test: pEC50 of agonist-induced pathway activation (ebBRET)
GPR68 [9] = target: GPR68 (UniProt Q15743); test: as above
GPR4 [10] = target: GPR4 (UniProt P46093); test: as above

Sequence of FP (P43088 whole entry): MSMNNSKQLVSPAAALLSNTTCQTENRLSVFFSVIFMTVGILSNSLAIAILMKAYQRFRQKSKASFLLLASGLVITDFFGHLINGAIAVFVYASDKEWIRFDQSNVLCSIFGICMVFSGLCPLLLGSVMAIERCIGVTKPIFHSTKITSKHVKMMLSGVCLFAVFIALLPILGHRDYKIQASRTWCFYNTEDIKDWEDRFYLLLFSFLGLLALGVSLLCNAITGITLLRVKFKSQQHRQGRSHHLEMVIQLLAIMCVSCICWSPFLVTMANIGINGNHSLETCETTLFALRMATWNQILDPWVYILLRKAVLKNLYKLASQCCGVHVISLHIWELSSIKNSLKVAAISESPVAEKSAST

CCCCC[C@H](O)/C=C/[C@H]1C(=O)C[C@H](O)[C@@H]1C/C=C\CCCC(=O)O [PGD2]
Conditions	Emax, FP [1]	pEC50, FP [2]
pathway (G protein / arrestin sensor): G11	459	8.66
pathway (G protein / arrestin sensor): G12	104	8.38
pathway (G protein / arrestin sensor): G13	183	8.78
pathway (G protein / arrestin sensor): G14	578	8.17
pathway (G protein / arrestin sensor): G15	437	8.88
pathway (G protein / arrestin sensor): GoA	84.8	6.92
pathway (G protein / arrestin sensor): GoB	114	6.99
pathway (G protein / arrestin sensor): Gq	306	8.73
pathway (G protein / arrestin sensor): Gz	122	7.46

CC[C@H](C)[C@H](N)C(=O)N[C@H](C(=O)N[C@@H](CC(C)C)C(=O)N[C@@H](CO)C(=O)N[C@@H](CC(C)C)C(=O)N[C@@H](CC(=O)O)C(=O)N[C@H](C(=O)N1CCC[C@H]1C(=O)N[C@H](C(=O)NCC(=O)N[C@@H](CC(C)C)C(=O)N[C@@H](CC(C)C)C(=O)N[C@@H](CCC(N)=O)C(=O)N[C@H](C(=O)N[C@@H](CC(C)C)C(=O)N[C@@H](CC(C)C)C(=O)N[C@@H](CCC(=O)O)C(=O)N[C@@H](CCC(N)=O)C(=O)N[C@@H](C)C(=O)N[C@@H](CCCNC(=N)N)C(=O)N[C@@H](C)C(=O)N[C@@H](CCCNC(=N)N)C(=O)N[C@@H](C)C(=O)N[C@@H](C)C(=O)N[C@@H](CCCNC(=N)N)C(=O)N[C@@H](CCC(=O)O)C(=O)N[C@@H](CCC(N)=O)C(=O)N[C@@H](C)C(=O)N[C@H](C(=O)N[C@H](C(=O)N[C@@H](CC(N)=O)C(=O)N[C@@H](C)C(=O)N[C@@H](CCCNC(=N)N)C(=O)N[C@H](C(=O)N[C@@H](CC(C)C)C(=O)N[C@@H](C)C(=O)N[C@@H](CCCNC(=N)N)C(=O)N[C@H](C(=O)NCC(=O)N[C@@H](Cc1cnc[nH]1)C(=O)N[C@@H](CS)C(N)=O)C(C)C)[C@@H](C)CC)[C@@H](C)O)[C@@H](C)O)[C@@H](C)CC)[C@@H](C)CC)C(C)C)C(C)C [Urocortin II]
Conditions	Emax, CRFR2 [3]	pEC50, CRFR2 [4]
pathway (G protein / arrestin sensor): G15	725	8.77
pathway (G protein / arrestin sensor): Gi1	442	8.2
pathway (G protein / arrestin sensor): Gi2	206	8.28
pathway (G protein / arrestin sensor): GoA	159	8.33
pathway (G protein / arrestin sensor): GoB	263	8.37
pathway (G protein / arrestin sensor): Gs	57.3	10.3
pathway (G protein / arrestin sensor): Gz	72.8	8.2
pathway (G protein / arrestin sensor): βarr1/GRK2	1420	8.08
pathway (G protein / arrestin sensor): βarr2	1090	7.98
pathway (G protein / arrestin sensor): βarr2/GRK2	1440	8.16

Cl [pH (proton)]
Conditions	Emax, GPR4 [7]	Emax, GPR65 [5]	Emax, GPR68 [6]	pEC50, GPR4 [10]	pEC50, GPR65 [8]	pEC50, GPR68 [9]
pathway (G protein / arrestin sensor): G11	164	–	849	6.64	–	7.35
pathway (G protein / arrestin sensor): G12	–	–	63.4	–	–	7.71
pathway (G protein / arrestin sensor): G13	–	117	65.6	–	7.9	8.24
pathway (G protein / arrestin sensor): G14	61.3	–	871	6.26	–	7.2
pathway (G protein / arrestin sensor): G15	111	–	446	6.59	–	6.49
pathway (G protein / arrestin sensor): Gi1	–	–	582	–	–	6.56
pathway (G protein / arrestin sensor): Gi2	–	–	454	–	–	6.63
pathway (G protein / arrestin sensor): GoA	–	–	296	–	–	7.17
pathway (G protein / arrestin sensor): GoB	–	86.8	428	–	6.3	7.41
pathway (G protein / arrestin sensor): Gq	152	–	749	6.73	–	7.4
pathway (G protein / arrestin sensor): Gs	44.2	32.3	44.9	7.91	7	6.51
pathway (G protein / arrestin sensor): βarr1/GRK2	41.4	57.6	76.2	–	5.98	6.25
pathway (G protein / arrestin sensor): βarr2	173	68.8	103	6.99	6.31	6
pathway (G protein / arrestin sensor): βarr2/GRK2	–	–	147	–	–	6.07
